Experimental data from US6028112A, “Spirocyclopropyl fluorenes as melatonergic agents” (Bristol-Myers Squibb Company, priority 1998, dated 2000).

Legend:
[1] = target: T1, melatonin ML1A receptor (Homo sapiens, UniProt P48039); test: Melatonergic receptor binding activity (2-[125I]-iodomelatonin, membrane homogenates of NIH-3T3 cells expressing the ML1A receptor); settings: 37° C., 1 hour, class symbols, read-out: Melatonin Binding Affinity (IC50 Range)
T1 construct: expressed in transfected cells; membrane homogenates
T1 sequence (P48039 whole entry): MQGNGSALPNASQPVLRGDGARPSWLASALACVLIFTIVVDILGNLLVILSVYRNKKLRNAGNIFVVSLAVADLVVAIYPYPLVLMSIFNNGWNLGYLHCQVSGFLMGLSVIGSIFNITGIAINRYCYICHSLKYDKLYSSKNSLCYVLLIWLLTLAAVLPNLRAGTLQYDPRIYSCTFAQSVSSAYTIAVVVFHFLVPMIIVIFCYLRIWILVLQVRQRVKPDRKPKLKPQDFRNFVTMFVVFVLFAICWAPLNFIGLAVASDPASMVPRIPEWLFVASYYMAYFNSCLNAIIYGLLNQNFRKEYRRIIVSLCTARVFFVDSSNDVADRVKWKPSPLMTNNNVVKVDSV
Experimental: Melatonergic Receptor Binding Activity
(a) TME=50 mM Tris buffer containing 12.5 mM MgCl2, and 2 mM EDTA, pH 7.4 at 37° C. with concentrated HCl.
(b) Wash buffer: 20 mM Tris base containing 2 mM MgCl2. pH 7.4 at room temperature.
(c) 10^-4 M melatonin (10^-5 M final concentration).
(d) 2-[^125 I]-iodomelatonin, […] final concentration
2. Membrane Homogenates. The melatonin ML1A receptor cDNA was subcloned into pcDNA3 and introduced into NIH-3T3 cells using Lipofectamine. Transformed NIH-3T3 cells resistant to geneticin (G-418) were isolated, and single colonies expressing high levels of 2[^125 Iiodomelatonin binding were isolated. Cells are maintained in DMEM supplemented with 10% calf serum and G-418 (0.5 g/liter). Cells are grown to confluency in T-175 flasks, scraped using Hank's balanced salt solution, and frozen at -80° C. For preparing membrane homogenates,pellets are thawed on ice, and resuspended in TME buffer in the presence of 10 μg/ml aprotinin and leupeptin, and 100 μM phenylmethylsulfonylfluoride. The cells were then homogenized using a dounce homogenizer, and centrifuged. The resulting pellet was resuspended with dounce homogenizer in TME (supplemented with the above protease inhibitors) and frozen. On the day of assay, the small aliquot was thawed on ice and resuspended in ice cold TME (1:50-1:100 v/v) and held on ice until assayed.
3. Incubation: 37° C. for 1 hour. Reaction is terminated by filtration. Filters are washed 3 times.
4. References: Reppert, S. M., and Ebisawa, R. (1994). Neuron, 13, 1177-1185.

[2] = tested on: circadian rhythms in rats; settings: exogenous administration, Cassone, et al., 1986; cited from earlier work

Row | IC50 [1] | Structure (SMILES) | synchronization of circadian rhythms [2]
1 | < 10 nM | CCC(=O)NCC1CC12c1cc(F)ccc1-c1ccc(OC)cc12 (stereo not drawn) [Example 13, trans-N-[(2'-Fluoro-7'-methoxy-spiro[cyclopropane-1,9'-[9H]fluoren]-2-yl)methyl]propanamide] | –
2 | < 10 nM | CCC(=O)NCC1CC12c1cc(F)ccc1-c1ccc(OC)cc12 (stereo not drawn) [Example 12, cis-N-[(2'-Fluoro-7'-methoxy-spiro[cyclopropane-1,9'-[9H]fluoren]-2-yl)methyl]propanamide] | –
3 | < 10 nM | CCCC(=O)NCC1CC12c1cc(OC)ccc1-c1ccc(OC)cc12 (centres unmarked) [Example 7, N-[(2',7'-Dimethoxyspiro[cyclopropane-1,9'-[9H]fluoren]-2-yl)methyl]butanamide] | –
4 | < 10 nM | COc1ccc2c(c1)C1(CC1CNC(=O)C1CC1)c1cc(OC)ccc1-2 (centres unmarked) [Example 8, N-[(2',7'-Dimethoxyspiro[cyclopropane-1,9'-[9H]fluoren]-2-yl)methyl]cyclopropane carboxamide] | –
5 | 100 to 250 nM | COc1ccc2c(c1)C1(CC1CNC(=O)C(C)(C)C)c1cc(OC)ccc1-2 (centres unmarked) [Example 10, N-[(2',7'-Dimethoxyspiro[cyclopropane-1,9'-[9H]fluoren]-2-yl)methyl]-2,2-dimethylpropanamide] | –
6 | 10 to 100 nM | COc1ccc2c(c1)C1(CC1CNC(=O)C1CCC1)c1cc(OC)ccc1-2 (centres unmarked) [Example 9, N-[(2',7'-Dimethoxyspiro[cyclopropane-1,9'-[9H]fluoren]-2-yl)methyl]-cyclobutane carboxamide] | –

The remaining lines, values behind:

Row | Structure (SMILES) | IC50 [1] | synchronization of circadian rhythms [2]
7 | CCC(=O)NCC1CC12c1cc(OC)ccc1-c1ccc(OC)cc12 (single isomer, unassigned; (-)) [Example 4, (-)-N-[(2'7'-Dimethoxyspiro[cyclopropane-1,9'-[9H]fluoren]-2-yl)methyl]propanamide] | < 10 nM | –
8 | CCC(=O)NCC1CC12c1cc(OC)ccc1-c1ccc(OC)cc12 (centres unmarked) [Example 3, N-[(2',7'-Dimethoxyspiro[cyclopropane-1,9'-[9H]fluoren]-2-yl)methyl]propanamide] | < 10 nM | –
9 | COc1ccc2c(c1)C1(CC1CNC(C)=O)c1cc(OC)ccc1-2 (centres unmarked) [Example 6, N-[(2',7'-Dimethoxyspiro[cyclopropane-1,9'-[9H]fluoren]-2-yl)methyl]acetamide] | < 10 nM | –
10 | CCC(=O)NCC1CC12c1cc(OC)ccc1-c1ccc(OC)cc12 (single isomer, unassigned; (+)) [Example 5, (+)-N-[(2',7'-Dimethoxyspiro[cyclopropane-1,9'-[9H]fluoren]-2-yl)methyl]propanamide] | < 10 nM | –
11 | COc1ccc2[nH]cc(CCNC(C)=O)c2c1 [melatonin, N-acetyl-5-methoxytryptamine] | – | found to synchronize circadian rhythms in rats
